Patent publication US9078899B2, “Pyrazolyl-based carboxamides II” (Grünenthal GmbH, priority 2013, dated 2015)
Like-named read-outs stand apart in the source and are kept apart here.

Molecular target: T1, CRAC channel (Homo sapiens, UniProt Q96D31)
T1 construct: host or cells: HEK293
Assay: HEK Calcium Influx Assay (FLIPR)
Type: cell-based
Procedure: The effect of compounds of the invention on intracellular [Ca^2+] was tested in the HEK293 cell line (ECACC).
HEK293 cells were cultured in DMEM/F12/Glutamax (Gibco) containing 10% FCS (Gibco), and maintained at 37° C., 5% CO2. Cell were split twice a week [3*10^6 (Mon-Thu) and 1*10^6 (Thu-Mon) cells/50 ml medium in T-175 ZK culture flasks, respectively]. Twenty four hours pre-experiment, cells were seeded on 96 well plates (Poly-D-Lysine 96well Black/Clear Plate, BD Biocoat REF 356640) at a density of 40,000 cells/well in DMEM/F12 (Gibco) containing 10% FCS (Gibco), and maintained at 37° C., 5% CO2.
Prior to store-depletion, cell culture medium was removed and cells were loaded with the a Calcium-sensitive fluorescent dye comprised within the Calcium-4-assay kit (Molecular Devices) in nominally Ca^2+-free HBS buffer (140 mM NaCl, 4 mM KCl, 0.2 mM MgCl2, 11 mM D-glucose, and 10 mM HEPES, pH 7.4) according to manufacturer's instruction for 60 min at 37° C., 5% CO2.
Passive depletion of intracellular Ca^2+-stores was then triggered by employing the SERCA inhibitor thapsigargin (2 μM final) for 10 min in the dark (RT). To prevent immediate Ca^2+-entry via the activated Store-operated channels (SOCs), cells were maintained in Ca^2+-free HBS buffer comprising 100 μM EGTA during store-depletion.
Intracellular changes in [Ca^2+] were subsequently monitored with the FLIPR device (Molecular Devices). In brief, baseline imaging post-store depletion was allowed for 1 min before adjusting the extracellular buffer to 3 mM CaCl2. Increases in intracellular [Ca^2+] due to pre-activated SOC channels were monitored for 15 min until intracellular Ca^2+ levels had declined into a steady-state. Finally, compounds were administered and Ca^2+ signals were recorded for additional 10 min.
Inhibition of endogenous SOC in HEK293 cells was quantified employing the average Ca^2+ signal measured from 9.5-10 min post-administration. Zero percent inhibition (MAX) was defined as the Ca^2+ signal recorded from wells to which DMSO-only had been added instead of compound. Hundred percent inhibition (MIN) was defined as the signal obtained from wells in which cells haven't been treated with TG prior to Ca^2+ addition and to which DMSO-only had been added instead of compound. For routine IC50 determinations of compounds, 8 concentrations of a serial dilution (1:3.16) were tested, starting off from 10 μM. Reliable IC50's could consequently be determined only, if they were at least sub 2.5-3 μM.

[1] = 10 μM, endogenous SOC in HEK293 cells, thapsigargin store depletion, Ca2+ signal 9.5-10 min post-administration, read-out: % inhib.[@ 10 μM] FLIPR

T1 sequence (Q96D31 whole entry): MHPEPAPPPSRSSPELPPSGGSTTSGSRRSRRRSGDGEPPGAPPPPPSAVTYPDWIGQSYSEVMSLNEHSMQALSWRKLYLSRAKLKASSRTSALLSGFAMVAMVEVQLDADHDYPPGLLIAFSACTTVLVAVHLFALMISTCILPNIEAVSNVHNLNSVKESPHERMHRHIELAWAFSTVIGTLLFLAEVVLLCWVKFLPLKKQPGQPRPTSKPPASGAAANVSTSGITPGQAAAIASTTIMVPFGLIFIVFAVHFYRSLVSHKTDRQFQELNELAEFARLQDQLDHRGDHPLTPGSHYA

inhibition at 10 µM [1] | Compound | inhibition at 10 µM (HEK293, read-out: % inhib.[@ 10 μM] FLIPR)
> 70% | Cn1nc(C(=O)Nc2c(F)cccc2F)cc1-c1cc(C(F)(F)F)ccc1F [Example 6, N-(2,6-Difluoro-phenyl)-5-[2-fluoro-5-(trifluoromethyl)-phenyl]-1-methyl-1H-pyrazole-3-carboxylic acid amide] | 
50 to 70% | Cn1nc(C(=O)Nc2c(F)cccc2F)cc1-c1cc(C(F)(F)F)ccc1C#N [Example 38, 5-[2-Cyano-5-(trifluoromethyl)-phenyl]-N-(2,6-difluoro-phenyl)-1-methyl-1H-pyrazole-3-carboxylic acid amide] | 
50 to 70% | Cn1nc(C(=O)Nc2c(F)cccc2F)cc1-c1c(F)cccc1F [Example 50, N,5-Bis(2,6-difluoro-phenyl)-1-methyl-1H-pyrazole-3-carboxylic acid amide] | 
50 to 70% | Cc1cncc(F)c1NC(=O)c1cc(-c2c(F)cccc2F)n(C)n1 [Example 53, 5-(2,6-Difluoro-phenyl)-N-(3-fluoro-5-methyl-pyridin-4-yl)-1-methyl-1H-pyrazole-3-carboxylic acid amide] | 
50 to 70% | Cn1nc(C(=O)Nc2ccccc2OC(F)(F)F)cc1-c1c(F)cccc1C(F)(F)F [Example 54, 5-[2-Fluoro-6-(trifluoromethyl)-phenyl]-1-methyl-N-[2-(trifluoromethyloxy)-phenyl]-1H-pyrazole-3-carboxylic acid amide] | 
50 to 70% | Cn1nc(C(=O)Nc2ccc(F)cc2F)cc1-c1c(F)cccc1C(F)(F)F [Example 55, N-(2,4-Difluoro-phenyl)-5-[2-fluoro-6-(trifluoromethyl)-phenyl]-1-methyl-1H-pyrazole-3-carboxylic acid amide] | 
50 to 70% | Cn1nc(C(=O)Nc2ccccc2C#N)cc1-c1c(F)cccc1C(F)(F)F [Example 56, N-(2-Cyano-phenyl)-5-[2-fluoro-6-(trifluoromethyl)-phenyl]-1-methyl-1H-pyrazole-3-carboxylic acid amide] | 
50 to 70% | COc1cc(F)c(NC(=O)c2cc(-c3c(F)cccc3C(F)(F)F)n(C)n2)c(F)c1 [Example 58, N-(2,6-Difluoro-4-methoxy-phenyl)-5-[2-fluoro-6-(trifluoromethyl)-phenyl]-1-methyl-1H-pyrazole-3-carboxylic acid amide] | 
> 70% | Cc1cccc(F)c1NC(=O)c1cc(-c2c(F)cccc2C(F)(F)F)n(C)n1 [Example 59, N-(2-Fluoro-6-methyl-phenyl)-5-[2-fluoro-6-(trifluoromethyl)-phenyl]-1-methyl-1H-pyrazole-3-carboxylic acid amide] | 
> 70% | Cn1nc(C(=O)Nc2ccccc2C(F)(F)F)cc1-c1c(F)cccc1C(F)(F)F [Example 60, 5-[2-Fluoro-6-(trifluoromethyl)-phenyl]-1-methyl-N-[2-(trifluoromethyl)-phenyl]-1H-pyrazole-3-carboxylic acid amide] | 
> 70% | Cn1nc(C(=O)Nc2ccccc2F)cc1-c1c(F)cccc1C(F)(F)F [Example 61, N-(2-Fluorophenyl)-5-[2-fluoro-6-(trifluoromethyl)-phenyl]-1-methyl-1H-pyrazole-3-carboxylic acid amide] | 
> 70% | Cn1nc(C(=O)Nc2ccncc2F)cc1-c1c(F)cccc1C(F)(F)F [Example 62, N-(3-Fluoro-pyridin-4-yl)-5-[2-fluoro-6-(trifluoromethyl)-phenyl]-1-methyl-1H-pyrazole-3-carboxylic acid amide] | 
> 70% | Cc1cncc(F)c1NC(=O)c1cc(-c2c(F)cccc2C(F)(F)F)n(C)n1 [Example 63, N-(3-Fluoro-5-methyl-pyridin-4-yl)-5-[2-fluoro-6-(trifluoromethyl)-phenyl]-1-methyl-1H-pyrazole-3-carboxylic acid amide] | 

Further lines, the compound ahead of its results:

Compound | inhibition at 10 µM [1] | inhibition at 10 µM (HEK293, read-out: % inhib.[@ 10 μM] FLIPR)
Cn1nc(C(=O)Nc2c(F)cccc2F)cc1-c1cc(F)ccc1F [Example 5, 5-(2,5-Difluoro-phenyl)-N-(2,6-difluoro-phenyl)-1-methyl-1H-pyrazole-3-carboxylic acid amide] | 50 to 70% | 
Cn1nc(C(=O)Nc2ccncc2F)cc1-c1ccc(OC(F)(F)F)cc1Cl [Example 11, 5-[2-Chloro-4-(trifluoromethyloxy)-phenyl]-N-(3-fluoro-pyridin-4-yl)-1-methyl-1H-pyrazole-3-carboxylic acid amide] | 50 to 70% | 
COc1ccc(OC)c(-c2cc(C(=O)Nc3ccc(S(C)(=O)=O)cc3F)nn2C)c1 [Example 13, 5-(2,5-Dimethoxyphenyl)-N-(2-fluoro-4-methylsulfonyl-phenyl)-1-methyl-1H-pyrazole-3-carboxylic acid amide] | 50 to 70% | 
COc1ccc(OC)c(-c2cc(C(=O)Nc3ccncc3C(F)(F)F)nn2C)c1 [Example 14, 5-(2,5-Dimethoxyphenyl)-1-methyl-N-[3-(trifluoromethyl)-pyridin-4-yl]-1H-pyrazole-3-carboxylic acid amide] | 50 to 70% | 
COc1ccc(OC)c(-c2cc(C(=O)Nc3ccncc3F)nn2C)c1 [Example 19, 5-(2,5-Dimethoxyphenyl)-N-(3-fluoro-pyridin-4-yl)-1-methyl-1H-pyrazole-3-carboxylic acid amide] | > 70% | 
COc1ccc(Cl)cc1-c1cc(C(=O)Nc2ccncc2F)nn1C [Example 22, 5-(5-Chloro-2-methoxy-phenyl)-N-(3-fluoro-pyridin-4-yl)-1-methyl-1H-pyrazole-3-carboxylic acid amide] | 50 to 70% | 
Cc1ccc(Cl)cc1-c1cc(C(=O)Nc2ccncc2F)nn1C [Example 23, 5-(5-Chloro-2-methyl-phenyl)-N-(3-fluoro-pyridin-4-yl)-1-methyl-1H-pyrazole-3-carboxylic acid amide] | 50 to 70% | 
COc1ccc(-c2cc(C(=O)Nc3ccncc3F)nn2C)c(C)c1 [Example 24, N-(3-Fluoro-pyridin-4-yl)-5-(4-methoxy-2-methyl-phenyl)-1-methyl-1H-pyrazole-3-carboxylic acid amide] | > 70% | 
Cc1cnccc1NC(=O)c1cc(-c2cc(Cl)ccc2C)n(C)n1 [Example 28, 5-(5-Chloro-2-methyl-phenyl)-1-methyl-N-(3-methyl-pyridin-4-yl)-1H-pyrazole-3-carboxylic acid amide] | 50 to 70% | 
Cc1ccc(C(F)(F)F)cc1-c1cc(C(=O)Nc2ccncc2F)nn1C [Example 29, N-(3-Fluoro-pyridin-4-yl)-1-methyl-5-[2-methyl-5-(trifluoromethyl)-phenyl]-1H-pyrazole-3-carboxylic acid amide] | 50 to 70% | 
COc1ccc(OC)c(-c2cc(C(=O)Nc3ccccc3F)nn2C)c1 [Example 33, 5-(2,5-Dimethoxyphenyl)-N-(2-fluorophenyl)-1-methyl-1H-pyrazole-3-carboxylic acid amide] | > 70% | 
CCn1nc(C(=O)Nc2c(F)cccc2F)cc1-c1cc(OC)ccc1OC [Example 37, N-(2,6-Difluoro-phenyl)-5-(2,5-dimethoxyphenyl)-1-ethyl-1H-pyrazole-3-carboxylic acid amide] | 50 to 70% | 
COc1ccc(OC)c(-c2cc(C(=O)Nc3c(F)cccc3F)n[nH]2)c1 [Example 41, N-(2,6-Difluoro-phenyl)-5-(2,5-dimethoxyphenyl)-1H-pyrazole-3-carboxylic acid amide] | > 70% | 
COc1ccc(OC)c(-c2c(N)c(C(=O)Nc3ccncc3F)nn2C)c1 [Example 48, 4-Amino-5-(2,5-dimethoxyphenyl)-N-(3-fluoro-pyridin-4-yl)-1-methyl-1H-pyrazole-3-carboxylic acid amide] | > 70% | 
Cc1cccc(Cl)c1NC(=O)c1cc(-c2c(F)cccc2F)n(C)n1 [Example 52, N-(2-Chloro-6-methyl-phenyl)-5-(2,6-difluoro-phenyl)-1-methyl-1H-pyrazole-3-carboxylic acid amide] | 50 to 70% | 
Cn1nc(C(=O)Nc2ccc(Cl)cc2Cl)cc1-c1c(F)cccc1C(F)(F)F [Example 57, N-(2,4-Dichlorophenyl)-5-[2-fluoro-6-(trifluoromethyl)-phenyl]-1-methyl-1H-pyrazole-3-carboxylic acid amide] |  | 50 to 70%
Cc1ccncc1-c1cc(C(=O)Nc2ccccc2C(F)(F)F)nn1C [Example 64, 1-Methyl-5-(4-methyl-pyridin-3-yl)-N-[2-(trifluoromethyl)-phenyl]-1H-pyrazole-3-carboxylic acid amide] | > 70% | 
